From patent US8470856B2, “Anthranilamide compounds, process for their production and pesticides containing them” (Ishihara Sangyo Kaisha, Ltd., priority 2004, dated 2013)
“And” between values parts separate entries of the source, which are not always exact repeats. Equal entries are not always repeated.

Key:
Type in all cases: in vivo
[1] = tested on: Haemaphysalis longicornis; experiment: Controlling effects against Haemaphysalis longicornis, knockdown of larval ticks in treated petri dish; settings: 1 ml acetone solution 10 μg/ml on petri dish, 25° C., operation repeated twice (two values)
Experimental: Test on Controlling Effects Against Haemaphysalis longicornis
On an inner surface of a petri dish having diameter of 9 cm, 1 ml of an acetone solution of a sample compound (concentration: 10 μg/ml) was dropwise applied by a micropipette. On the other hand, as a control section, 1 ml of acetone was dropwise applied in the same manner. The inner surface of the petri dish was dried, and then about 100 larval ticks were put, and the petri dish was covered with a polyethylene sheet and sealed with an elastic band. Thereafter, except for the observation time, the petri dish was left to stand at a constant temperature of 25° C. under a relative humidity of 100% and under a constantly dark condition. The observation was carried out every time after putting the larval ticks in the petri dish (after 5 minutes, 10 minutes, 15 minutes, 20 minutes, 30 minutes, 45 minutes, 1 hour, 2 hours, 4 hours, 6 hours and 24 hours). The number of knockdown ticks after the contact with the insecticidal compound was recorded. The foregoing operation was repeated twice.
The knockdown rate at each observation time was corrected by the following abbott correction formula. Then, a probit-time linear line was drawn, and the median knockdown time (KT50 value) was obtained. With respect to the KT50 values of the respective sample compounds, they were 9 minutes and 8 minutes with the above-mentioned compound No. 3, and 7.5 minutes and 6 minutes with the above-mentioned compound No. 9, while they were 80 minutes and 40 minutes with the following comparative compound A and 120 minutes and 80 minutes with the following comparative compound B. Corrected knockdown rate(%)=[(non-knockdown rate in control section−non-knockdown rate in treated section)/non-knockdown rate in control section]×100

[2] = tested on: Common Cutworm (Spodoptera litura); experiment: Controlling effects against common cutworm, cabbage leaf dip; settings: foliar, 120 h
Excerpt: Test on Controlling Effects Against Common Cutworm (Spodoptera litura)
A leaf segment of cabbage was dipped for about 10 seconds in an insecticidal solution prepared to bring the concentration of the compound of the present invention to 50 ppm or 3.1 ppm and dried in air. A wet filter paper was laid in a petri dish having a diameter of 9 cm, and the dried leaf segment of cabbage was placed thereon. Ten second-third instar larvae common cutworm were released therein and after putting a cover, left in a constant temperature chamber at 25° C. with lightening. Dead larvae were counted 5 days after the release, and the mortality was calculated by the following equation. Here, moribund insects were counted as dead insects. […] Mortality(%)=(number of dead insects/number of released insects)×100

[3] = tested on: Cat Flea (Ctenocephalides felis); experiment: Controlling effects against cat flea, dry film in glass tube; settings: 0.5 ml of 5.3 ppm acetone solution as dry film, adult fleas, 48 hours after exposure
Experimental: Test on Controlling Effects Against Cat Flea (Ctenocephalides felis)
0.5 ml of an acetone solution of the compound of the present invention prepared to be 5.3 ppm was dropped in a glass tube having a flat bottom (inner diameter: 2.6 cm, bottom area: 5.3 cm^2, height 12 cm). The acetone was evaporated at room temperature to have a dry film containing the compound of the present invention formed on the bottom surface. Ten adults of cat flea (not-yet-blood-sucked adults within five days after adult emergence) were put therein and exposed to the compound of the present invention. The test was carried out continuously three times.
Dead cat flea were counted 48 hours after the exposure and the mortality was obtained in the same manner as in the above Test Example 1.

| SMILES | median knockdown time (KT50 value) [1] | further results |
| --- | --- | --- |
| Cc1cc(Cl)cc(C(=O)NC(C)C)c1NC(=O)c1cc(C(F)(F)F)nn1-c1ncccc1Cl [comparative compound A, reference compound] | 80 min and 40 min | – |
| Cc1cc(Cl)cc(C(=O)NC(C)C)c1NC(=O)c1cc(Br)nn1-c1ncccc1Cl [comparative compound B, reference compound] | 120 min and 80 min | – |
| Cc1cccc(C(=O)NCC2CC2)c1NC(=O)c1cc(C(F)(F)F)nn1-c1ncccc1Cl [compound No. 1, N-[6-[[(cyclopropylmethyl)amino]carbonyl]-2-methylphenyl]-1-(3-chloro-2-pyridyl)-3-(trifluoromethyl)-1H-pyrazol-5-carboxamide] | – | mortality at 3.1 ppm [2]: ≥ 90% |
| Cc1cc(Cl)cc(C(=O)NC(C)C2CC2)c1NC(=O)c1cc(C(F)(F)F)nn1-c1ncccc1Cl (stereo not drawn) [compound No. 3, N-[4-chloro-2-methyl-6-[[α-methyl-(cyclopropylmethyl)amino]carbonyl]-phenyl]-3-(trifluoromethyl)-1-(3-chloro-2-pyridyl)-1H-pyrazol-5-carboxamide] | 9 min and 8 min | – |
| Cc1cc(Cl)cc(C(=O)NC(C)C2CC2)c1NC(=O)c1cc(Br)nn1-c1ncccc1Cl (stereo not drawn) [compound No. 9, N-[4-chloro-2-methyl-6-[[α-methyl-(cyclopropylmethyl)amino]carbonyl]-phenyl]-3-bromo-1-(3-chloro-2-pyridyl)-1H-pyrazol-5-carboxamide] | 7.5 min and 6 min | – |
| CC(NC(=O)c1cc(Cl)cc(Br)c1NC(=O)c1cc(Br)nn1-c1ncccc1Cl)C1CC1 (stereo not drawn) [compound No. 16, N-[2-bromo-4-chloro-6-[[α-methyl-(cyclopropylmethyl)amino]carbonyl]-phenyl]-3-bromo-1-(3-chloro-2-pyridyl)-1H-pyrazol-5-carboxamide] | – | mortality [3]: at least 90% |
